Source: patent US9186390B2, “Methods and uses of TIE2 binding and/or activating agents” (Sunnybrook Health Sciences Center, priority 2010, dated 2015)
Entries after “also recorded” stand apart in the source; their conditions may differ.

System: AT derm mice (pTek-tTA:pTetOS-Tek)
Experiment: Atopic dermatitis (AT derm) transgenic mouse model and wild-type littermates, 30-day Vasculotide treatment
Type: in vivo, CD1 mice
Description: Briefly, construction of the driver transgene, pTek-tTA, and the responder transgenes, pTetOS-Tek, pTetos-Ang1, and pTetos-Ang2 have been described previously. All transgenic lines were maintained and genotyped as previously described (Voskas et al. (2005) Am. J. Pathol. 166(3):843-855, Ward et al. (2004) Am. J. Pathol. 165(3):889-899, Bureau et al. (2006) Am. J. Physiol. Heart Circ. Physiol. 291(2):H948-965). Males were housed with a single female for 14 to 20 days and then separated into individual cages. CD1 mice (an outbred mouse line) were maintained in a barrier facility. All adult mice used in these studies were 2 to 6 months old.
Mouse skin tissue was fixed in 4% paraformaldehyde (Sigma, St. Louis, Mo.) for 16 hours at 4 degrees Celsius, and transferred to 70% ethanol. Tissues were subsequently paraffin embedded and sectioned at 4 μM on SuperFrost glass slides. Tissue slides were stained for hematoxylin and eosin using standard techniques. For immunohistochemistry, anti-E-Selectin (rat; Pharmingen, La Jolla, Calif.), anti-VCAM1 (rat; Pharmingen), anti-ICAM1 (Hamster; Pharmingen, La Jolla, Calif.), primary antibodies were detected using biotinylated secondary antibodies as described in the Vectastain Elite ABC kit (Vector Laboratories, Burlingame, Calif.). Slides were processed and counterstained with methyl green using standard techniques. Slides were analyzed and photos were processed using a Leica compound light microscope coupled to a Leica DFC300FX camera (Wetzlar, Germany). Skin tissue was taken (biopsy) at day 0, prior to initiation of treatment and at 30 days. Gross phenotypic examination was conducted and mice were photographed in a standard format using a Digital Canon Eos Rebel.
Blood was collected from all mice on day 0 (prior to treatment) and day 30 (after 30 days of treatment). On day 0, approximately 50 μl was collected via tail vein puncture into a lithium heparin micro tube. Day 30 blood was collected via cardiac puncture into a lithium heparin micro tube. Both blood samples were prepared for storage and subsequent analysis using Phosflow Lyse/Fix Buffer (BD Biosciences, Franklin Lakes, N.J.), according to manufacturers instructions. Cells were stained for IgE versus free FITC and characteristic populations of basophils and eosinophils were identified.
Normal and double transgenic (pTek-tTA:pTetOS-Tek) CD1 mice were injected intra peritoneally with either sterile PBS, pH 7.4 (vehicle) or Vasculotide (40 μg/kg) every three days for the period of 30 days. Mice were observed closely during this period for phenotypic resolution and/or any potential ill effects.
Plasma was collected in lithium/heparin microtubes from all mice following 30 days of treatment with Vasculotide or vehicle. Plasma was diluted 1:8 in sample diluent (BD Biosciences, Franklin Lakes, N.J.). A multiplex analysis of 12 different mouse cytokines was examined according to manufacturer's instructions. Analysis and cytokine/chemokine quantification was performed using the manufacturers FCAP software package (BD Biosciences, Franklin Lakes, N.J.).
Blood was collected from mice as previously described. Separated plasma was diluted 1:4 in calibrator diluent according to manufacturer's specifications (R&D Biosystems, Minneapolis, Minn. USA). All aspects of the assay were conducted according to manufacturer's directions. Quantification of plasma eotaxin concentrations was performed by linear regression analysis from assessment of defined amounts of eotaxin standard.

[1] = AT derm and wild-type mice, 30 days treatment
[2] = AT derm mice, skin and underlying muscle, 40 μg/kg every 3 days for 30 days
[3] = wild-type (or single transgenic) mice, 30 days, p=0.0027

Vasculotide: Modified T7 peptide (CHHHRHSF, SEQ ID NO:2) conjugated to 10 kDa tetrameric polyethylene glycol-maleimide; Tie2 binding peptide mimetic
body weight change during 30-day treatment (40 μg/kg every 3 days for 30 days, vs PBS): no statistically significant alteration; also recorded: no statistically detectable alteration | plasma eotaxin levels (ELISA) (AT Derm mice vs PBS treated AT Derm mice, p=0.0208): statistically significant decrease | basophil numbers in peripheral blood (FACS) [1]: marked reduction; also recorded: Decreased numbers | eosinophil numbers in peripheral blood (FACS) [1]: marked reduction; also recorded: Decreased numbers | number of granulocytes in the bone marrow (AT derm and wild-type mice, treated or untreated): unchanged | gross phenotype: erythema, micro-haemorrhages of the ears, scaly plaque formation on the tail (AT derm mice (moderate or severe), 40 μg/kg every 3 days for 30 days): complete or almost complete resolution; also recorded: Gross phenotypic improvement | plasma IL-1β (cytometric bead array) (AT derm mice vs PBS-treated AT derm mice, 30 days, p=0.0492): reduction | erythema after the third dose (9 days) (AT derm mice, 40 μg/kg every three days): reduction in erythema | epidermal hyperplasia and infiltration of leukocytes (H&E staining of skin) (AT derm mice, 30 days treatment vs PBS): dramatic reduction; also recorded: marked reduction | E-selectin expression (immunohistochemistry) [2]: very low or absent levels of positive staining; also recorded: dramatic reduction | ICAM1 expression (immunohistochemistry) [2]: very low or absent levels of positive staining; also recorded: dramatic reduction | VCAM1 expression (immunohistochemistry) [2]: very low or absent levels of positive staining; also recorded: dramatic reduction | neutrophils in peripheral blood (FACS) (control and AT-Derm mice, 30 days treatment): No effects | plasma IL-5 (cytometric bead array) [3]: statistically significant decrease | plasma IL-13 (cytometric bead array) [3]: statistically significant decrease | plasma MIP1b (cytometric bead array) (wild-type (or single transgenic) mice, 30 days, p=0.003): statistically significant decrease | plasma IL-9 (cytometric bead array) (wild-type (or single transgenic) mice, 30 days, p=0.0079): statistically significant decrease | plasma MCP1 (cytometric bead array) (wild-type (or single transgenic) mice, 30 days, p=0.0116): statistically significant decrease | plasma MIG (cytometric bead array) (wild-type (or single transgenic) mice, 30 days, p=0.0117): statistically significant decrease | plasma TNF-α (cytometric bead array) (wild-type (or single transgenic) mice, 30 days, p=0.0309): statistically significant decrease | plasma MIP1a (cytometric bead array) (wild-type (or single transgenic) mice, 30 days, p=0.0473): statistically significant decrease | plasma IL-17 (cytometric bead array) (wild-type (or single transgenic) mice, 30 days, p=0.0492): statistically significant decrease | plasma IL-12/IL-23 p40 (cytometric bead array) (wild-type (or single transgenic) mice, 30 days, p=0.0494): statistically significant decrease | overt effects / appearance of single transgenic or wild-type littermates (wild-type or single transgenic mice, 40 μg/kg every three days): no overt effects; also recorded: indistinguishable from PBS-treated
